The text below walks through data of US7517657B2, “Peptides for detecting anti-double stranded DNA antibody and uses thereof” (Albert Einstein College of Medicine of Yeshiva University, priority 1995, dated 2009).

Entries after “also recorded” stand apart in the source; their conditions may differ. Square brackets hold non-standard residues; d marks the D form. Ends that are not written are not given here.

For the first test, the system named is 52b3 anti-dsDNA monoclonal antibody. Put plainly: ELISA binding of monoclonal antibody 52b3 to phage clones. More on the design: species or system mouse. The settings on record: 52b3 selected phage, Table 3. On the procedure: (§1) FIG. 1 is comprised of FIGS. 1A, 1B and 1C, and depicts the binding by Enzyme Linked ImmunoSorbent Assay of monoclonal antibodies R4A (FIG. 1A), 95 (FIG. 1B) and 52b3 (FIG. 1C) to phage clones. In each figure, the shaded columns are R4A-selected phage and unshaded columns are 52b3-selected phage.
(§2) Binding of antibodies to phage was determined by Enzyme-Linked ImmunoSorbent Assay (ELISA). Microtiter plates (Becton Dickinson, Lincoln Park, N.J.) were coated with 50 μl of antibody (1 μg/ml unless otherwise specified) in TBS (Tris/10 mM HCl pH 7.5, 150 mM NaCl) overnight at 4° C. Plates were washed 3 times with TBS/0.05% TWEEN® 20. Approximately 2.5×10^10 purified phage in 50 μl TBS were added to each well, incubated for 2 hours at 37° C., washed, and then were blocked with 150 μl of TBS/2% BSA for 1 hour at 37° C. Plates were incubated with 50 μl of a 1:4000 dilution in TBS of biotinylated sheep antibody to M13 phage (5′->3′, Inc., Boulder, Colo.) for 1 hour at 37° C. Plates were washed again and incubated with a 1:4000 dilution of […] streptavidin (Southern Biotech. Assoc. Inc., Birmingham, Ala.) and developed with Sigma-104 substrate tablets (Sigma Chemical Co.). Optical density was read at 405 nm.
(In general: In an ELISA, binding on a coated surface is turned into a signal by an enzyme label.)
In the case of “T W C P V W I W D C (TWCPVWIWDC; displayed on phage; peptide (1)..(10) randomly-selected sequence obtained by biopanning a decapeptide library with 52b3) [φB16]”, the “Binding O.D. 405 nm” value amounted to 1.0.
As to “V L I C W D G C E T (VLICWDGCET; displayed on phage; peptide (1)..(10) randomly-selected sequence obtained by biopanning a decapeptide library with 52b3) [φB17]”, the “Binding O.D. 405 nm” value was found to be 1.6.
The same measure, in the same setting: the figure for “S C Y Q S Y P G E C (SCYQSYPGEC; displayed on phage; peptide (1)..(10) randomly-selected sequence obtained by biopanning a decapeptide library with 52b3) [φB52]” is 1.8.
Turning to “D G E W P R E G W S (DGEWPREGWS; displayed on phage; peptide (1)..(10) randomly-selected sequence obtained by biopanning a decapeptide library with 52b3) [φB56]”, the “Binding O.D. 405 nm” value is reported as 1.6.
Still for that read-out and setting: in the case of “W D C Y V C R L E L (WDCYVCRLEL; displayed on phage; peptide (1)..(10) randomly-selected sequence obtained by biopanning a decapeptide library with 52b3) [φB21]” it was 1.2.
In the case of “S L I S D E W P R W (SLISDEWPRW; displayed on phage; peptide (1)..(10) randomly-selected sequence obtained by biopanning a decapeptide library with 52b3) [φB24]”, the “Binding O.D. 405 nm” value amounted to 1.3.
“L L D D G F W P R V (LLDDGFWPRV; displayed on phage; peptide (1)..(10) randomly-selected sequence obtained by biopanning a decapeptide library with 52b3) [φB25]”: the “Binding O.D. 405 nm” value stood at 1.5.
With “E D L E G E W P M R (EDLEGEWPMR; displayed on phage; peptide (1)..(10) randomly-selected sequence obtained by biopanning a decapeptide library with 52b3) [φB22]”, the “Binding O.D. 405 nm” value was 1.5.
As to “S L D E L D W D S M (SLDELDWDSM; displayed on phage; peptide (1)..(10) randomly-selected sequence obtained by biopanning a decapeptide library with 52b3) [φB1]”, the “Binding O.D. 405 nm” value is recorded as 1.4.
With “R H E D G D W P R V (RHEDGDWPRV; not fully specified (N-terminus, C-terminus)) [φB11]”, the “Binding O.D. 405 nm” value is recorded as 1.4.
Turning to “C G V D G R W P R W (CGVDGRWPRW; displayed on phage; peptide (1)..(10) randomly-selected sequence obtained by biopanning a decapeptide library with 52b3) [φB23]”, the “Binding O.D. 405 nm” value is on record as 1.5.

Another test relates to R4A anti-dsDNA monoclonal antibody. Put plainly: ELISA binding of monoclonal antibody R4A to phage clones. More on the design: species or system mouse. Particulars: R4A selected phage, Table 2. On the procedure: as §1, §2
Turning to “D W E Y S V W L S N (DWEYSVWLSN; not fully specified (N-terminus, C-terminus)) [φ1-3]”, the “Binding O.D. 405 nm” value amounted to 1.3.
For “S T E H S E A D L W (STEHSEADLW; displayed on phage; peptide (1)..(10) randomly-selected sequence obtained by biopanning a decapeptide library with R4A) [φ1-2]”, the “Binding O.D. 405 nm” value is on record as 0.7.
Same read-out and setting: in the case of F S D C Y H S G C P [φ1-1] it was 1.5.
“L Y F E D Y R C E L (LYFEDYRCEL; displayed on phage; peptide (1)..(10) randomly-selected sequence obtained by biopanning a decapeptide library with R4A) [φ7-6]”: the “Binding O.D. 405 nm” value is given as 1.2.
As for “D W D Y G A L M W A (DWDYGALMWA; displayed on phage; peptide (1)..(10) randomly-selected sequence obtained by biopanning a decapeptide library with R4A) [φ7-3]”, the “Binding O.D. 405 nm” value stood at 1.1.
As for “Y S D W D Y S E G L (YSDWDYSEGL; displayed on phage; peptide (1)..(10) randomly-selected sequence obtained by biopanning a decapeptide library with R4A) [φ1-10]”, the “Binding O.D. 405 nm” value is on record as 1.1.
As for “W C E A D Y G R C P (WCEADYGRCP; displayed on phage; peptide (1)..(10) randomly-selected sequence obtained by biopanning a decapeptide library with R4A) [φ7-21]”, the “Binding O.D. 405 nm” value was determined as 1.3.
Consider “V P V C D W E L N C (VPVCDWELNC; displayed on phage; peptide (1)..(10) randomly-selected sequence obtained by biopanning a decapeptide library with R4A) [φ7-26]”, for which the “Binding O.D. 405 nm” value is recorded as 0.4.

For a further test, the system named is R4A binding to dsDNA. The test is described as follows: Peptide inhibition of R4A binding to dsDNA by ELISA. On the set-up: species or system mouse. Particulars: fluid phase inhibitor, FIG. 3, FIG. 4. As to the method:
FIG. 3 depicts peptide inhibition of R4A (1 μg/ml) binding to calf thymus double stranded DNA by Enzyme Linked ImmunoSorbent Assay.
FIG. 4 sets forth a graph representing DWEYS (L and D peptides) (SEQ ID NO:2) inhibition of R4A binding to dsDNA. IMMULON® II plates were coated overnight with 100 μg/ml salmon sperm dsDNA. R4A at a final concentration of 5 μg/ml was incubated at varying concentrations of L or D DWEYS (SEQ ID NO:2) and transferred to the plate precoated with dsDNA. After a 2-hr incubation at 37° C., the plates were washed, and alkaline phosphotase-linked goat anti-mouse IgG2b antibody was added for 1 hour at 37° C. OD after addition of substrate was monitored at 405 nm.
Turning to DWEYSVWLSN [R4A specific peptide], the “Inhibition of R4A binding to dsDNA” value was “inhibited dsDNA binding by the appropriate antibody only”.
As to “DWEYS [L peptide DWEYS, R4A-specific L peptide DWEYS]”, the “Inhibition of R4A binding to dsDNA” value is reported as “showed greater maximal inhibition; also recorded: inhibited the binding of R4A to dsDNA; also recorded: inhibited dsDNA better than the D peptide in vitro”.
On to “DWEYS [D peptide DWEYS] (Ac-[dD][dW][dE][dY][dS]-NH2; SMILES CC(=O)N[C@H](CC(=O)O)C(=O)N[C@H](Cc1c[nH]c2ccccc12)C(=O)N[C@H](CCC(=O)O)C(=O)N[C@H](Cc1ccc(O)cc1)C(=O)N[C@H](CO)C(N)=O) [R4A-specific peptide DWEYS made from D amino acids]”, for which the “Inhibition of R4A binding to dsDNA” value is “inhibited the binding of R4A to dsDNA”.

The next test relates to 52b3 binding to dsDNA. Put plainly: Peptide inhibition of 52b3 binding to dsDNA by ELISA. On the set-up: species or system mouse. The settings on record: fluid phase peptide, FIG. 3. As to the method: To determine whether peptide and dsDNA bound within the same antigen binding site of each antibody, inhibition assays were performed with specific peptides. […] These were used in fluid phase to inhibit the binding of antibody to dsDNA. Two peptides, Asp-Trp-Glu-Tyr-Ser-Val-Trp-Leu-Ser-Asn (SEQ ID NO:1) and Asp-Trp-Glu-Tyr-Ser (SEQ ID NO:2), were chosen as the R4A specific epitope; the 52b3 specific peptide was Arg-His-Glu-Asp-Gly-Asp-Trp-Pro-Arg-Val (SEQ ID NO:7).
For RHEDGDWPRV [52b3 specific peptide], the “Inhibition of 52b3 binding to dsDNA” value is recorded as “inhibited dsDNA binding by the appropriate antibody only”.

A further test deals with R4A deposition in glomeruli. The test is described as follows: Assay of anti-dsDNA antibody (R4A) glomerular deposition in SCID mice. Format: in vivo. Particulars: 75 μg R4A and 150 μg peptide i.p., IgG immunostaining, FIG. 5. On the procedure:
FIG. 5 sets forth kidney sections exemplifying peptide inhibition of R4A deposition in glomeruli. R4A (75 μg) and peptide (150 μg) were injected i.p. into SCID mice. Mice were killed 16 hours later, and the kidneys immunostained for IgG deposition. […] FIG. 5B sets forth a representative section from a mouse injected with R4A, and the R4A- specific D peptide DWEYS (SEQ ID NO:2).
Glomerular deposition of the nephritogenic R4A antibody was examined by injecting purified antibody into SCID mice. R4A was obtained from cell culture supernatants or from ascites of mice injected with the cell line. Antibody was purified on a protein G column (Gamma Bind, Pharmacia). SCID mice were obtained from the breeding colony maintained at the Albert Einstein College of Medicine. Six- to eight-week old female mice were used in the experiments. Anti-dsDNA antibodies and IgG2b levels were undetectable in these mice before injection. Individual mice were simultaneously injected i.p. with 75 μg of purified R4A and 150 μg of the appropriate peptide. The mice were killed 16 hours after the injection of antibody.
One kidney from each animal was fixed in 10% formalin and embedded in paraffin. […]
Take “DWEYS [L peptide DWEYS, R4A-specific L peptide DWEYS]”: the “Inhibition of R4A deposition in glomeruli / kidney” value is given as “More anti-dsDNA antibody is present in glomeruli; also recorded: did not”.
Take “DWEYS [D peptide DWEYS] (Ac-[dD][dW][dE][dY][dS]-NH2; SMILES CC(=O)N[C@H](CC(=O)O)C(=O)N[C@H](Cc1c[nH]c2ccccc12)C(=O)N[C@H](CCC(=O)O)C(=O)N[C@H](Cc1ccc(O)cc1)C(=O)N[C@H](CO)C(N)=O) [R4A-specific peptide DWEYS made from D amino acids]”: the “Inhibition of R4A deposition in glomeruli / kidney” value is reported as “markedly inhibited the deposition of R4A in the kidney; also recorded: only the D peptide conferred renal protection in vivo”.

For the next test, the target named is phage clone φ3-3, no insert (UniProt P03661). Put plainly: phage ELISA, antibody coated, no-insert control phage added, anti-M13 detection.
Chain of UniProt P03661 (P03661 19-424 limits assumed): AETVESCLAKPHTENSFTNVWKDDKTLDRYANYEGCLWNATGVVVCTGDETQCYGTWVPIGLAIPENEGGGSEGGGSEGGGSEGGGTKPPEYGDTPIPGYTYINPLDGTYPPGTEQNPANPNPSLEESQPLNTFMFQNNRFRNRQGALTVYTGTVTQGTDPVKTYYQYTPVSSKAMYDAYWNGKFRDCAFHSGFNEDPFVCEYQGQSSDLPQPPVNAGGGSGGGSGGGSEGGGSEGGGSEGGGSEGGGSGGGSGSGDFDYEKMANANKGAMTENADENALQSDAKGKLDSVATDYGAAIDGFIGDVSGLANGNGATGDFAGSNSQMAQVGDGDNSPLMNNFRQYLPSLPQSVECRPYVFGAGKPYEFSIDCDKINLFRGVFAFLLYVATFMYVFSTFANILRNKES
Settings: not given
Substance “monoclonal antibody R4A (mouse anti-dsDNA antibody)” registered a Binding O.D. 405 nm of 0.1 O.D. 405 nm.
